Some test systems named below: CCRF-CEM; HT-29; IGROV-1; SK-MEL-28; EKVX; RPMI-8226; MDA-MB-231; Malme-3M; MDA-MB-435; RXF 393; HOP-92; SNB-75; NCI-H522; A498; U-251; SF-295; UACC-257.
Holding throughout (assay): NCI-60 cell line screen, 48 h

SMILES strings stand for the structures.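 Growth conditions: 96-well plates. Treatment: test compound, 48 hours, 5 concentrations. Analysis: linear interpolation between bracketing concentrations; unreached endpoints set to highest concentration. The concentration for 50% growth inhibition is given as GI50.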 Calls of active or inactive are those of the source. Cut-off read from the data, not from the text of the source: active = GI50 up to about 1.1 µM and inactive = higher.

Experimental findings from ChEMBL document CHEMBL1201862, “PubChem BioAssay data set” (2004) are described below.

For the compound `Nc1ccccc1/N=C/c1cc2cc([N+](=O)[O-])ccc2s1`, the GI50 was 5.01 µM (inactive) in the assay with CCRF-CEM; 25.8 µM (inactive) in the assay with HT-29; 7.59 µM (inactive) with IGROV-1; 22 µM (inactive) with SK-MEL-28; 18.6 µM (inactive) in the assay on EKVX; 5.52 µM (inactive) with RPMI-8226. Besides, the GI50 in the assay on MDA-MB-231 was 16.3 µM (inactive); in the assay on Malme-3M it was 26.6 µM (inactive); with MDA-MB-435 it was 31.4 µM (inactive); with RXF 393 it was 14.5 µM (inactive); in the assay on HOP-92, 18.9 µM (inactive); in the assay on SNB-75 it was 14.4 µM (inactive). Also, the GI50 with NCI-H522 was 15.1 µM (inactive); in the assay on A498, 10.4 µM (inactive); in the assay on U-251, 14.5 µM (inactive); in the assay on SF-295, 21.9 µM (inactive); in the assay with UACC-257, 19.5 µM (inactive).

Regarding `CC(C)c1nc(Cl)c(Cl)c(Cl)n1`, the GI50 with CCRF-CEM was 1.07 µM (active); in the assay on HT-29, 2.1 µM (inactive); in the assay on IGROV-1, 3.08 µM (inactive); in the assay on SK-MEL-28 it was 14.2 µM (inactive); in the assay with EKVX, 11.7 µM (inactive); in the assay with RPMI-8226 it was 1.31 µM (inactive). Further, the GI50 was 8.85 µM (inactive) in the assay with MDA-MB-231; 0.608 µM (active) with Malme-3M; 4.2 µM (inactive) in the assay with MDA-MB-435; 2.05 µM (inactive) in the assay on RXF 393; 3.24 µM (inactive) in the assay with HOP-92; 11.2 µM (inactive) in the assay on SNB-75. For the same compound, the GI50 in the assay with NCI-H522 is 0.759 µM (active); with A498, 23.8 µM (inactive); in the assay with U-251 it was 3.42 µM (inactive); in the assay on SF-295, 14.5 µM (inactive); in the assay on UACC-257 it was 4.29 µM (inactive).

As to `C(=N\N=C1NCCCN1)/c1ccc2ccccc2c1`, the GI50 was 11.2 µM (inactive) in the assay on CCRF-CEM; 8.39 µM (inactive) in the assay with HT-29; 11.7 µM (inactive) with IGROV-1; 15.9 µM (inactive) in the assay on SK-MEL-28; 14.1 µM (inactive) in the assay with EKVX; 4.7 µM (inactive) in the assay on RPMI-8226. For the same compound, the GI50 is 6.32 µM (inactive) in the assay on MDA-MB-231; 18.2 µM (inactive) in the assay with Malme-3M; 5.89 µM (inactive) in the assay with MDA-MB-435; 15.5 µM (inactive) with RXF 393; 10.3 µM (inactive) in the assay on HOP-92; 3.97 µM (inactive) in the assay on SNB-75. Moreover, the GI50 with NCI-H522 was 15.1 µM (inactive); with A498, 3.01 µM (inactive); with U-251, 6.53 µM (inactive); in the assay with SF-295, 11.4 µM (inactive); in the assay with UACC-257, 17.3 µM (inactive).

In the case of `COC(=O)c1ccc(C)cc1CC1Cc2c(C)cccc2C1=O` (stereo not drawn), the GI50 in the assay on CCRF-CEM is 7.05 µM (inactive); in the assay on HT-29, 3.04 µM (inactive); in the assay with IGROV-1, 5.62 µM (inactive); with SK-MEL-28 it was 15.2 µM (inactive); with EKVX, 18 µM (inactive); with RPMI-8226, 4.65 µM (inactive). For the same compound, the GI50 was 2.32 µM (inactive) in the assay with MDA-MB-231; 10.7 µM (inactive) in the assay with Malme-3M; 1.82 µM (inactive) in the assay with MDA-MB-435; 10.9 µM (inactive) with RXF 393; 16.9 µM (inactive) with HOP-92; 4.16 µM (inactive) with SNB-75. Further, the GI50 in the assay with NCI-H522 was 4.46 µM (inactive); in the assay on A498, 4.95 µM (inactive); in the assay on U-251 it was 5.96 µM (inactive); in the assay on SF-295, 7.73 µM (inactive); in the assay with UACC-257 it was 10.4 µM (inactive).

As to `C1=N\CCNCC/N=C\c2ccc(cc2)OCc2cccc(n2)COc2ccc/1cc2`, the GI50 is > 100 µM (inactive) with CCRF-CEM; > 100 µM (inactive) with HT-29; 66.7 µM (inactive) in the assay with IGROV-1; > 100 µM (inactive) in the assay on SK-MEL-28; > 100 µM (inactive) with EKVX; > 100 µM (inactive) with RPMI-8226. Besides, the GI50 was 30.7 µM (inactive) with MDA-MB-231; 90.8 µM (inactive) in the assay with Malme-3M; > 100 µM (inactive) with MDA-MB-435; 98.9 µM (inactive) in the assay on RXF 393; > 100 µM (inactive) in the assay with HOP-92; 23 µM (inactive) with SNB-75. Also, the GI50 is 26.9 µM (inactive) with NCI-H522; > 100 µM (inactive) with A498; 32 µM (inactive) in the assay on U-251; 24.7 µM (inactive) with SF-295; > 100 µM (inactive) in the assay on UACC-257.

Take `COc1ccc(/C=N/Nc2nnc3c(n2)c2ccccc2c2nn(-c4ccccc4Cl)nc23)cc1`: the GI50 in the assay with CCRF-CEM, with HT-29, in the assay with IGROV-1, in the assay with SK-MEL-28, with EKVX and in the assay on RPMI-8226 was > 100 µM (inactive) each time. In addition, the GI50 with MDA-MB-231, in the assay on Malme-3M, in the assay with MDA-MB-435, with RXF 393, with HOP-92 and with SNB-75 was > 100 µM (inactive) throughout. Also, the GI50 in the assay with NCI-H522, in the assay with A498, in the assay with U-251, with SF-295 and in the assay with UACC-257 was > 100 µM (inactive) throughout.

With `O=C1C(=C2SC(c3ccccc3)(c3ccccc3)c3ccccc32)C(=O)c2ccccc21`, the GI50 in the assay on CCRF-CEM, in the assay on HT-29, in the assay on IGROV-1, in the assay with SK-MEL-28, in the assay on EKVX and in the assay on RPMI-8226 was > 100 µM (inactive) throughout. Further, the GI50 in the assay on MDA-MB-231, in the assay with Malme-3M, with MDA-MB-435, in the assay with RXF 393, with HOP-92 and with SNB-75 was > 100 µM (inactive) each time. In addition, the GI50 in the assay with NCI-H522 was > 100 µM (inactive); in the assay on A498, > 100 µM (inactive); in the assay with U-251 it was > 100 µM (inactive); with SF-295, > 100 µM (inactive); in the assay on UACC-257, 72.4 µM (inactive).

As to `Cc1ccc(-c2nc3n(c2/C=N\N=C(N)N)CCS3)cc1`, the GI50 was 22.1 µM (inactive) with CCRF-CEM; 14 µM (inactive) in the assay with HT-29; 15 µM (inactive) with IGROV-1; 15.7 µM (inactive) in the assay with SK-MEL-28; 16 µM (inactive) in the assay with EKVX; 32.8 µM (inactive) in the assay with RPMI-8226. The GI50 was 16.3 µM (inactive) in the assay with MDA-MB-231; 17.3 µM (inactive) in the assay with Malme-3M; 15.5 µM (inactive) in the assay on MDA-MB-435; 15.8 µM (inactive) in the assay on RXF 393; 19.4 µM (inactive) in the assay with HOP-92; 10.9 µM (inactive) in the assay with SNB-75. Moreover, the GI50 was 2.79 µM (inactive) with NCI-H522; 16.8 µM (inactive) in the assay on A498; 14.9 µM (inactive) in the assay on U-251; 12.2 µM (inactive) with SF-295; 16.6 µM (inactive) with UACC-257.

Take `CC(C)N(CC(=O)O)CC(=O)O`: the GI50 with CCRF-CEM, in the assay on HT-29, with IGROV-1, in the assay with SK-MEL-28, with EKVX and with RPMI-8226 was > 100 µM (inactive) each time. Besides, the GI50 with MDA-MB-231, in the assay on Malme-3M, in the assay with MDA-MB-435, in the assay on RXF 393, in the assay with HOP-92 and in the assay with SNB-75 was > 100 µM (inactive) in each case. Besides, the GI50 in the assay on NCI-H522, in the assay with A498, in the assay on U-251, in the assay with SF-295 and with UACC-257 was > 100 µM (inactive) throughout.

As to `CCOC(=O)CCSc1nc2ccc(I)cc2c(=O)n1Cc1ccccc1`, the GI50 is 15.8 µM (inactive) in the assay with CCRF-CEM; 34.4 µM (inactive) with HT-29; 9.91 µM (inactive) in the assay on IGROV-1; > 65.6 µM (inactive) with SK-MEL-28; 22.3 µM (inactive) with EKVX; 5.22 µM (inactive) in the assay on RPMI-8226. Also, the GI50 in the assay on MDA-MB-231 is 28.2 µM (inactive); in the assay on Malme-3M, 17.9 µM (inactive); with MDA-MB-435, 27.5 µM (inactive); in the assay on RXF 393 it was 26.9 µM (inactive); with HOP-92 it was 13.6 µM (inactive); in the assay on SNB-75 it was 30.3 µM (inactive). In addition, the GI50 in the assay on NCI-H522 was 10.7 µM (inactive); with A498, 24.6 µM (inactive); with U-251, 33 µM (inactive); in the assay with SF-295, 21.7 µM (inactive); in the assay with UACC-257, 25.5 µM (inactive).

Consider `N#CSc1[nH]cnc1C(N)=O`, for which the GI50 was 5.21 µM (inactive) in the assay with CCRF-CEM; > 100 µM (inactive) with HT-29; > 100 µM (inactive) in the assay with IGROV-1; 76.2 µM (inactive) in the assay on SK-MEL-28; > 100 µM (inactive) with EKVX; 4.22 µM (inactive) in the assay on RPMI-8226. Also, the GI50 in the assay with MDA-MB-231 is 55.7 µM (inactive); in the assay on Malme-3M it was 17.4 µM (inactive); in the assay with MDA-MB-435, > 100 µM (inactive); in the assay with RXF 393, > 100 µM (inactive); with HOP-92 it was > 100 µM (inactive); in the assay on SNB-75, > 100 µM (inactive). Further, the GI50 in the assay on NCI-H522 was 51.4 µM (inactive); in the assay with A498, > 100 µM (inactive); in the assay with U-251, > 95.9 µM (inactive); with SF-295, > 100 µM (inactive); with UACC-257, > 100 µM (inactive).

As for `c1ccc(CSc2ccccc2CN2CCN(Cc3ccccc3SCc3ccccc3)CCN(Cc3ccccc3SCc3ccccc3)CC2)cc1`, the GI50 in the assay with CCRF-CEM is 2.35 µM (inactive); in the assay on HT-29, 0.499 µM (active); with SK-MEL-28, 1.88 µM (inactive); with EKVX it was 1.2 µM (inactive); with RPMI-8226, 0.384 µM (active); in the assay with MDA-MB-231 it was 1.51 µM (inactive). The GI50 in the assay with Malme-3M was 1.71 µM (inactive); in the assay on MDA-MB-435, 1.31 µM (inactive); in the assay with RXF 393, 1.77 µM (inactive); in the assay with HOP-92 it was 0.359 µM (active); in the assay with SNB-75, 1.6 µM (inactive); in the assay with NCI-H522, 0.395 µM (active). In addition, the GI50 with A498 was 2.25 µM (inactive); in the assay on U-251, 0.869 µM (active); in the assay with SF-295, 1.04 µM (active); with UACC-257, 1.39 µM (inactive).
